In patent publication US20210130473A1, “TGFßR1 INHIBITOR-ASGR ANTIBODY CONJUGATES AND USES THEREOF” (Silverback Therapeutics, Inc., priority 2019, published 2021) one finds IC50 data, which are given here for nine molecules.

Test [1] deals with T1, ALK5 (Homo sapiens, UniProt P36897).
T1 construct: purchased Reaction Biology Corp (Malvern, Pa.)
T1 sequence (P36897 34-503): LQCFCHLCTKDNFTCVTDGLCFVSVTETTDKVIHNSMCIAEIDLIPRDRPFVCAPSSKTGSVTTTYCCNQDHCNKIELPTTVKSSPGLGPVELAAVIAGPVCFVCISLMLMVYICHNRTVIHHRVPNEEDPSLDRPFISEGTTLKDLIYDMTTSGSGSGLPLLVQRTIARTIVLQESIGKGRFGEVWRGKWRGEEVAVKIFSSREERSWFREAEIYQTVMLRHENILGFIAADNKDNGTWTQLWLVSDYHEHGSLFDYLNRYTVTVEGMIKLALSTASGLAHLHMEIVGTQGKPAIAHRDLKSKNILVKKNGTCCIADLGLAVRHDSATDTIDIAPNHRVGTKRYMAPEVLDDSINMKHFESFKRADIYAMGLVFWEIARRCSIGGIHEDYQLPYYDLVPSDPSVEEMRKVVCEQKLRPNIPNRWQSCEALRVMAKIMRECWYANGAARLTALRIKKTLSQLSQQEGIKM
As to the kind of experiment: ALK5 enzyme inhibition assay (casein substrate, 10 uM ATP, 33P-ATP, filter-binding; Reaction Biology Corp). It counts as biochemical. The note with it: Table 11. The method, boiled down: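 Kinase reaction with casein (1 mg/mL) and 10 uM ATP; compounds in DMSO preincubated with kinase 20 min at room temperature, then 33P-ATP added and reacted 2 h at room temperature. Filter-binding radioactivity read-out as percent remaining activity versus DMSO vehicle; IC50 from curve fits.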

In test [2] the test system is TGFβ/SMAD Signaling Pathway SBE reporter cell line. As to the kind of experiment: TGFb reporter assay in HEK293 SBE-LUC reporter cells (luciferase). It counts as cell-based. The note with it: Homo sapiens, key of the table says IC50, read-out: EC50 (the source's name). The method, boiled down: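 HEK293 SBE-luciferase reporter cells in MEM with 0.5% FBS were pretreated with compound for 5–6 h at 37 °C, then stimulated with TGFb (12.5 ng/mL stock added) for 18 h. Luminescence was read after luciferase substrate addition.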

In test [3] the test system is HEK293 SBE-LUC reporter cells transfected to stably express full length human ASGR1. As to the kind of experiment: Cell reporter assay of anti-ASGR1-ALK5 inhibitor conjugates: TGFβ1-mediated luciferase expression. In kind it is cell-based. The note with it: inhibition of TGFβ1-mediated luciferase expression, 6 h preincubation, human TGFβ1 1.6 ng/ml, further 18 h. The method, then: Anti-ASGR1 antibodies conjugated to an ALK5 inhibitor were tested via a cell reporter assay. Briefly, HEK293 SBE-LUC reporter cells transfected to stably express full length human ASGR1 were seeded in 96 well plates at 40,000 cells/well in an assay media of minimum essential media containing 0.5% fetal bovine serum, 1% nonessential amino acids, 1% sodium pyruvate and 1% Pen/Strep. Anti-ASGR1-ALK5 inhibitor conjugates and controls were added to wells in a dose titration ranging from 5 μM to 0.064 nM to HEK293 SBE-LUC and ASGR1-HEK293 SBE-LUC cells. After incubating for 6 hours at 37° C. in a 5% CO2 environment, human TGFβ 1 (PeproTech Inc.) was added to a final concentration of 1.6 ng/ml followed by an additional 18 hour incubation under the same conditions. Luciferase STEADY-GLO® reagent (Promega Corporation) was added at 70 μl/well and incubated with shaking for 10 minutes. Luciferase activity was determined by measuring luminescence with an ENVISION® Plate Reader (Perkin-Elmer Inc.). Data were fit with a four-parameter non-linear regression to calculate IC50 values using Prism Software v7.04 (GraphPad Inc.).

For the molecule `Cc1cccc(-c2nc(CNCCc3c(F)cccc3F)[nH]c2-c2ccc3ncnn3c2)n1` [Compound 60], the values for the IC50 in test [1], in test [2] and in test [3] were 0.1 to 50 nM, 0.1 to 10 nM and 13.4 nM, respectively.
For the molecule `Cc1cccc(-c2nc(CNCc3ccccc3C)[nH]c2-c2ccc3ncccc3n2)n1` [Compound 83], the IC50 fell in the range of 50 to 100 nM in test [1] and 0.1 to 10 nM in test [2].
Turning to `COc1ccccc1CCNCc1nc(-c2cccc(C)n2)c(-c2ccc3ncccc3n2)[nH]1` [Compound 84], the results for the IC50 in test [1] and in test [2] were 100 to 1000 nM and 0.1 to 10 nM, respectively.
As to `Cc1cccc(-c2nc(CNCCN(C)c3ccccc3)[nH]c2-c2ccc3ncccc3n2)n1` [Compound 85], the IC50 in test [1] lay within 50 to 100 nM; in test [2], 0.1 to 10 nM.
In the case of `Cc1cccc(-c2nc(CNCc3ccccc3C)[nH]c2-c2ccc3nccnc3c2)n1` [Compound 86], the IC50 fell in the range of 0.1 to 50 nM in test [1] and 0.1 to 10 nM in test [2].
In the same order, the values of `COc1ccccc1CCNCc1nc(-c2cccc(C)n2)c(-c2ccc3nccnc3c2)[nH]1` [Compound 87] are 0.1 to 50 nM and 0.1 to 10 nM.
As to `Cc1cccc(-c2nc(CNCCN(C)c3ccccc3)[nH]c2-c2ccc3nccnc3c2)n1` [Compound 88], the IC50 was 0.1 to 50 nM in test [1] and 0.1 to 10 nM in test [2].
As to `Cc1cccc(-c2nc(CNCc3ccccc3)[nH]c2-c2ccc3ncccc3c2)n1` [Compound 90], the IC50 fell in the range of 50 to 100 nM in test [1] and 0.1 to 10 nM in test [2].
With `Cc1cccc(-c2nc(CNCc3ccccc3-c3ccccc3)[nH]c2-c2ccc3ncccc3c2)n1` [Compound 91], the IC50 in test [1] is 100 to 1000 nM; in test [2] it was 10 to 100 nM.
